Reference: publication PMC5744864, “Indole and Benzimidazole Bichalcophenes: Synthesis, DNA Binding and Antiparasitic Activity” (European Journal of Medicinal Chemistry, 2018)
Structures can show the parent of a compound that is named as a salt. Where two headings read alike, the source gives them in different places. Blank lines part the entries; values can stand above or below the molecule they belong to.

Key:
[1] = system: poly(dA-dT)n; assay: Thermal melting (ΔTm) of poly(dA-dT) DNA; format: binding; conditions: ratio 0.3 mol compound per mole of DNA; CAC 10 buffer pH 7.0
Protocol: Thermal melting experiments were performed with a Cary 300 spectrophotometer. Cuvettes were mounted in a thermal block where the solution temperatures were mesaured with a thermistor in the reference cuvette. Temperatures were maintained under computer control and increased at 0.5 °C/min. The experiments were performed in 1 cm path length quartz cuvettes in CAC 10 buffer (cacodylic acid 10 mM, EDTA 1 mM, NaCl 100 mM with NaOH added to give pH = 7.0). Poly (dA-dT) DNA concentrations were determined by measuring its absorbance at 260 nm. A ratio of 0.3 mol compound per mole of DNA was used for the complex and DNA alone was used as control. ΔTm values were determined from the peak of first derivative curves (dA/dT).

[2] = system: T. b. r. (Trypanosoma brucei rhodesiense) STIB900; assay: In vitro viability assay, T. b. r. strain STIB900; format: cell-based; conditions: for IC50: Trypanosoma brucei, read-out: T. b. r. IC50; for SI/T. b. r., Selectivity Index IC50 (L6)/IC50 (T b.r.): ratio L6 versus T. b. r. STIB900
Protocol: (§1) The in vitro viability assays were with the T. b. r. strain STIB 900 and the chloroquine resistant P. f. strain K1. The efficacy studies were with the STIB900 acute mouse model for T. b. r. infections. Dosage was 4 × 5 mg/kg i.p. performed as previously described in detail. Cytotoxicity was evaluated in L6 rat myoblast cells as previously reported in detail.

[3] = system: P. f. (Plasmodium falciparum) strain K1; assay: In vitro viability assay, chloroquine resistant P. f. strain K1; format: cell-based; conditions: for IC50: Plasmodium falciparum; for SI/P.f, Selectivity Index IC50 (L6)/IC50 (P.f.): ratio L6 versus P. f. K1
Protocol: as §1

[4] = Cytotoxicity in L6 rat myoblast cells; format: cell-based; conditions: cultured L6 rat myoblast cells; read-out: Cytotox. IC50 (L6)
Protocol: as §1

[5] = system: Poly(dA).Poly(dT); assay: Circular dichroism titration with Poly(dA).Poly(dT); format: binding; conditions: 20 μM Poly(dA).Poly(dT), 10 mM MES, 100 mM NaCl, 1 mM EDTA, 25 °C
Protocol: Fig. 2 Circular dichroism spectra of the titration of representative compounds, (4a, 4d, 8a, 8b, 8c) with a 20 μM Poly(dA).Poly(dT) sequence in the buffer (10 mM MES, 100 mM NaCl, 1 mM EDTA, at pH, 7.4) at 25 °C.
CD spectra were collected employing a Jasco J-810 spectrometer at 25 °C using different ratios of compound to DNA at 25 °C in MES 10 buffer (10 mM MES, 100 mM NaCl, I mM EDTA).First, a DNA solution in a 1-cm quartz cuvette was scanned over the desired wavelength range. Tested compounds at increasing ratios, were titrated into the same cuvette and the complexes rescanned under the same conditions.

[6] = system: T. b. rhodesiense (STIB900) infected mice; assay: STIB900 acute mouse model for T. b. r. infections; format: in vivo; conditions: 4 × 5 mg/kg i.p.; for In vivo (cures), cured/infected mice: T. b. rhodesiense (STIB900) infected mice; for In vivo cure of infected mice (in words): T. b. rhodesiense infected mice
Protocol: The excellent in vitro activity and selectivity of the indole bichalcophenes diamidines (4a-d) encouraged us to test them in vivo in the rigorous T. b. r. STIB900 mouse model (Table 1) for the acute hemolymphatic stage of the African trypanosomiasis. The dosage applied was low with a daily intraperitoneal (i.p.) dose of 5 mg/kg compound for four consecutive days.
as §1

[7] = system: T. b. rhodesiense (STIB900) infected mice; design: method as in PMID 23959303; conditions: 5 mg/kg i.p. daily for four consecutive days; cited from earlier work
[8] = strain STIB900, average of duplicate determinations

Structure (SMILES): N=C(N)c1ccc2nc(-c3ccc(-c4ccc(C(=N)N)o4)o3)[nH]c2c1 [Compound 8a, 2-(5′-Amidino-2,2′-bifuran-5-yl)-1H-benzimidazole-5(6)-amidine hydrochloride salt]
ΔTm, thermal melting increase of poly(dA-dT)n [1]: 29 ^oC
IC50 [2, 8]: 102 nM
SI/T. b. r., Selectivity Index IC50 (L6)/IC50 (T b.r.) [2]: 409
IC50 ([3]; chloroquine resistant strain K1, average of duplicate determinations, read-out: P.f. IC50): 91.9 nM
SI/P.f, Selectivity Index IC50 (L6)/IC50 (P.f.) [3]: 454
IC50 [4]: 41800 nM
Induced CD signal on binding (minor groove binding) [5]: very strong induced CD signals

Structure (SMILES): N=C(N)c1ccc2nc(-c3ccc(-c4ccc(C(=N)N)o4)o3)[nH]c2c1 (as salt: hydrochloride) [Compound 8a, 2-(5′-Amidino-2,2′-bifuran-5-yl)-1H-benzimidazole-5(6)-amidine hydrochloride salt]
melting point: > 300 °C

Structure (SMILES): N=C(N)c1ccc2cc(-c3ccc(-c4ccc(C(=N)N)o4)o3)[nH]c2c1 (as salt: hydrochloride) [Compound 4a, 2-(5′-Amidino-2,2′-bifuran-5-yl)-1H-indole-6-amidine hydrochloride salt]
melting point: > 300 °C

Structure (SMILES): N=C(N)c1ccc2cc(-c3ccc(-c4ccc(C(=N)N)s4)o3)[nH]c2c1 [Compound 4b, 2-(5-(5-Amidinothiophen-2-yl)furan-2-yl)-1H-indole-6-amidine hydrochloride salt]
ΔTm, thermal melting increase of poly(dA-dT)n [1]: >30 ^oC
IC50 [2]: 15 nM
SI/T. b. r., Selectivity Index IC50 (L6)/IC50 (T b.r.) [2]: 1046
IC50 ([3]; K1, read-out: P.f. IC50): 7.3 nM
SI/P.f, Selectivity Index IC50 (L6)/IC50 (P.f.) [3]: 2150
IC50 [4]: 15700 nM
In vivo (cures), cured/infected mice [6]: 0/4

Structure (SMILES): N=C(N)c1ccc2nc(-c3ccc(-c4ccc(C(=N)N)s4)s3)[nH]c2c1 (as salt: hydrochloride) [Compound 8c, 2-(5′-Amidino-2,2′-bithiophen-5-yl)-1H-benzimidazole-5(6)-amidine hydrochloride salt]
melting point: > 300 °C

Structure (SMILES): N=C(N)c1ccc2nc(-c3ccc(-c4ccc(C(=N)N)s4)s3)[nH]c2c1 [Compound 8c, 2-(5′-Amidino-2,2′-bithiophen-5-yl)-1H-benzimidazole-5(6)-amidine hydrochloride salt]
ΔTm, thermal melting increase of poly(dA-dT)n [1]: >30 ^oC
IC50 [2, 8]: 25 nM
SI/T. b. r., Selectivity Index IC50 (L6)/IC50 (T b.r.) [2]: 1048
IC50 [4]: 26200 nM
Induced CD signal on binding (minor groove binding) [5]: very strong induced CD signals

Structure (SMILES): N=C(N)c1ccc2cc(-c3ccc(-c4ccc(C(=N)N)o4)s3)[nH]c2c1 (as salt: hydrochloride) [Compound 4c, 2-(5-(5-Amidinofuran-2-yl)thiophen-2-yl)-1H-indole-6-amidine hydrochloride salt]
melting point: > 300 °C

Structure (SMILES): N=C(N)c1ccc2nc(-c3ccc(-c4ccc(C(=N)N)s4)o3)[nH]c2c1 (as salt: hydrochloride) [Compound 8b, 2-(5-(5-Amidinothiophen-2-yl)furan-2-yl)-1H-benzimidazole-5(6)-amidine hydrochloride salt]
melting point: > 300 °C

Structure (SMILES): N=C(N)c1ccc(OCCCCCOc2ccc(C(=N)N)cc2)cc1 [pentamidine, Pentamidine]
In vivo (cures), cured/infected mice [7]: 1/4

Structure (SMILES): N=C(N)c1ccc2cc(-c3ccc(-c4ccc(C(=N)N)s4)s3)[nH]c2c1 [Compound 4d, 2-(5′-Amidino-2,2′-bithiophen-5-yl)-1H-indole-6-amidine hydrochloride salt]
ΔTm, thermal melting increase of poly(dA-dT)n [1]: >30 ^oC
IC50 [2]: 2 nM
SI/T. b. r., Selectivity Index IC50 (L6)/IC50 (T b.r.) [2]: 5800
IC50 ([3]; K1, read-out: P.f. IC50): 6.8 nM
SI/P.f, Selectivity Index IC50 (L6)/IC50 (P.f.) [3]: 1705
IC50 [4]: 11600 nM
In vivo (cures), cured/infected mice [6]: 0/4
Induced CD signal on binding (minor groove binding) [5]: very strong induced CD signals

Structure (SMILES): N=C(N)c1ccc2cc(-c3ccc(-c4ccc(C(=N)N)o4)s3)[nH]c2c1 [Compound 4c, 2-(5-(5-Amidinofuran-2-yl)thiophen-2-yl)-1H-indole-6-amidine hydrochloride salt]
ΔTm, thermal melting increase of poly(dA-dT)n [1]: 28 ^oC
IC50 [2]: 4 nM
SI/T. b. r., Selectivity Index IC50 (L6)/IC50 (T b.r.) [2]: 4400
IC50 ([3]; K1, read-out: P.f. IC50): 6.8 nM
SI/P.f, Selectivity Index IC50 (L6)/IC50 (P.f.) [3]: 2588
IC50 [4]: 17600 nM
Sterile cures in mice infected with T. b. r. ([6]; STIB900 mouse model): 100%
In vivo (cures), cured/infected mice [6]: 4/4
In vivo cure of infected mice (in words) [6]: curing all T. b. r. infected mice

Structure (SMILES): N=C(N)c1ccc2cc(-c3ccc(-c4ccc(C(=N)N)o4)o3)[nH]c2c1 [Compound 4a, 2-(5′-Amidino-2,2′-bifuran-5-yl)-1H-indole-6-amidine hydrochloride salt]
ΔTm, thermal melting increase of poly(dA-dT)n [1]: 28 ^oC
IC50 [2]: 15 nM
SI/T. b. r., Selectivity Index IC50 (L6)/IC50 (T b.r.) [2]: 1100
IC50 ([3]; K1, read-out: P.f. IC50): 2.9 nM
IC50 [4]: 16500 nM
In vivo (cures), cured/infected mice [6]: 0/4
Induced CD signal on binding (minor groove binding) [5]: very strong induced CD signals

Structure (SMILES): N=C(N)c1ccc2cc(-c3ccc(-c4ccc(C(=N)N)s4)s3)[nH]c2c1 (as salt: hydrochloride) [Compound 4d, 2-(5′-Amidino-2,2′-bithiophen-5-yl)-1H-indole-6-amidine hydrochloride salt]
melting point: > 300 °C

Structure (SMILES): N=C(N)c1ccc2nc(-c3ccc(-c4ccc(C(=N)N)s4)o3)[nH]c2c1 [Compound 8b, 2-(5-(5-Amidinothiophen-2-yl)furan-2-yl)-1H-benzimidazole-5(6)-amidine hydrochloride salt]
ΔTm, thermal melting increase of poly(dA-dT)n [1]: 27 ^oC
IC50 [2, 8]: 64 nM
SI/T. b. r., Selectivity Index IC50 (L6)/IC50 (T b.r.) [2]: 234
IC50 [4]: 15000 nM
Induced CD signal on binding (minor groove binding) [5]: very strong induced CD signals

melting point: > 300 °C
Structure (SMILES): N#Cc1ccc2nc(-c3ccc(-c4ccc(C#N)s4)s3)[nH]c2c1 [Compound 7c, 2-(5′-Cyano-2,2′-bithiophen-5-yl)-1H-benzimidazole-5(6)-carbonitrile]
In vivo cure of infected mice (in words) [6]: cured all mice

Structure (SMILES): N=C(N)c1ccc2cc(-c3ccc(-c4ccc(C(=N)N)s4)o3)[nH]c2c1 (as salt: hydrochloride) [Compound 4b, 2-(5-(5-Amidinothiophen-2-yl)furan-2-yl)-1H-indole-6-amidine hydrochloride salt]
melting point: > 300 °C
